{
  "source": "patent US20140303164A1",
  "about": "“THERAPEUTIC COMPOUNDS” (Gilead Sciences, Inc., priority 2013, published 2014)",
  "key": {"HIV-IIIb": {"test_system": "HIV-IIIb", "test": "Test A: Antiviral Assay in MT4 Cells", "type": "cell-based, HIV-1", "settings": "for inhibition at 0.2 µM / inhibition at 2 µM: Human immunodeficiency virus 1, IIIB, MT4, 120 h; for inhibition at 0.2 µM: read-out: % inhibition at 0.2 μM; for inhibition at 2 µM: read-out: % inhibition at 2 μM", "method": "Test A: Antiviral Assay in MT4 Cells\nMT-4 cells were next mixed with HIV-IIIb at an m.o.i of 0.003 for 1 hour, after which time 35 μL of virus/cell mixture (2000 cells) was immediately added to each well containing 40 μL of diluted compound. The plates were then incubated at 37° C. for 5 days. […] Cell lysis was carried out by incubating at room temperature for 10 min and then chemiluminescence was read."}, "uninfected MT-4 cells": {"test_system": "uninfected MT-4 cells", "test": "Test B: Cytotoxicity Assay", "type": "cell-based", "settings": "same protocol as Test A, 5 days", "method_in_brief": "(§1)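 Uninfected MT-4 cells (2000 per well) incubated with diluted compound at 37° C. for 5 days, following the antiviral protocol without HIV-IIIb.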"}, "[1]": {"test": "Test B: Cytotoxicity Assay", "type": "cell-based", "settings": "human, uninfected MT-4 cells, same protocol as Test A", "method_in_brief": "as §1"}},
  "data": [
    {"smiles": "CCC(O)C#Cc1ccc(-c2ccc(Cl)c3c(NS(C)(=O)=O)nn(C)c23)c([C@H](Cc2cc(F)cc(F)c2)NC(=O)Cn2nc(C(F)(F)F)c3c2C(F)(F)[C@@H]2C[C@H]32)n1", "note": "(stereo partly drawn) [Compound 145, N-((1S)-1-(3-(4-chloro-1-methyl-3-(methylsulfonamido)-1H-indazol-7-yl)-6-(3-hydroxypent-1-yn-1-yl)pyridin-2-yl)-2-(3,5-difluorophenyl)ethyl)-2-((3b-S,4aR)-5,5-difluoro-3-(trifluoromethyl)-3b,4,4a,5-tetrahydro-1H-cyclopropa[3,4]cyclopenta[1,2-c]pyrazol-1-yl)acetamide]", "values": [
      {"measurement": "% inhibition at 0.2 μM", "setting": "HIV-IIIb; percent inhibition of virus-induced cell killing at 0.2 μM drug concentration, from dose response curve, MT-4 cells, HIV-IIIb, 5 days, values above 100 normalized to 100", "value": 99, "unit": "%"},
      {"measurement": "% inhibition at 2 μM", "setting": "HIV-IIIb; percent inhibition of virus-induced cell killing at 2 μM drug concentration, from dose response curve, MT-4 cells, HIV-IIIb, 5 days, values above 100 normalized to 100", "value": 99, "unit": "%"},
      {"measurement": "CC50", "setting": "uninfected MT-4 cells", "value": 8.69, "unit": "µM"}
    ]},
    {"smiles": "Cn1nc(NS(C)(=O)=O)c2c(Cl)ccc(-c3ccc(-c4ccccn4)nc3[C@H](Cc3cc(F)cc(F)c3)NC(=O)Cn3nc(C(F)(F)F)c4c3C(F)(F)[C@@H]3C[C@H]43)c21", "note": "[Compound 172, N—((S)-1-(5-(4-chloro-1-methyl-3-(methylsulfonamido)-1H-indazol-7-yl)-[2,2′-bipyridin]-6-yl)-2-(3,5-difluorophenyl)ethyl)-2-((3b-S,4aR)-5,5-difluoro-3-(trifluoromethyl)-3b,4,4a,5-tetrahydro-1H-cyclopropa[3,4]cyclopenta[1,2-c]pyrazol-1-yl)acetamide]", "values": [
      {"measurement": "CC50", "setting": "uninfected MT-4 cells", "value": 0.061, "unit": "µM"}
    ]},
    {"smiles": "Cn1nc(NS(C)(=O)=O)c2c(Cl)ccc(-c3ccc(C#CC(C)(C)O)nc3[C@H](Cc3cc(F)cc(F)c3)NC(=O)Cc3noc4ccccc34)c21", "note": "[Compound 198, (S)-2-(benzo[d]isoxazol-3-yl)-N-(1-(3-(4 chloro-1-methyl-3-(methylsulfonamido)-1H-indazol-7-yl)-6-(3-hydroxy-3-methylbut-1-yn-1-yl)pyridin-2-yl)-2-(3,5-difluorophenyl)ethyl)acetamide]", "values": [
      {"measurement": "inhibition at 0.2 µM", "setting": "HIV-IIIb", "value": 64, "unit": "%"},
      {"measurement": "inhibition at 2 µM", "setting": "HIV-IIIb", "value": 98, "unit": "%"},
      {"measurement": "CC50 at 5 days", "setting": "[1]", "value": 23.7, "unit": "µM"}
    ]},
    {"smiles": "Cn1nc(NC(=O)C(F)F)c2c(Cl)ccc(-c3ccc(C#CC(C)(C)O)nc3[C@H](Cc3cc(F)cc(F)c3)NC(=O)Cn3nc(C(F)F)c4c3C(F)(F)[C@@H]3C[C@H]43)c21", "note": "[Compound 97, N-(4-chloro-7-(2-((S)-1-(2-((3b-S,4aR)-3-(difluoromethyl)-5,5-difluoro-3b,4,4a,5-tetrahydro-1H-cyclopropa[3,4]cyclopenta[1,2-c]pyrazol-1-yl)acetamido)-2-(3,5-difluorophenyl)ethyl)-6-(3-hydroxy-3-methylbut-1-yn-1-yl)pyridin-3-yl)-1-methyl-1H-indazol-3-yl)-2,2-difluoroacetamide]", "values": [
      {"measurement": "inhibition at 0.2 µM", "setting": "HIV-IIIb", "value": 100, "unit": "%"},
      {"measurement": "inhibition at 2 µM", "setting": "HIV-IIIb", "value": 100, "unit": "%"},
      {"measurement": "CC50 at 5 days", "setting": "[1]", "value": 7.6, "unit": "µM"}
    ]},
    {"smiles": "COCC(=O)Nc1nn(C)c2c(-c3ccc(C#CC(C)(C)O)nc3[C@H](Cc3cc(F)cc(F)c3)NC(=O)Cn3nc(C(F)F)c4c3C(F)(F)[C@@H]3C[C@H]43)ccc(Cl)c12", "note": "[Compound 84, N—((S)-1-(3-(4-chloro-3-(2-methoxyacetamido)-1-methyl-1H-indazol-7-yl)-6-(3-hydroxy-3-methylbut-1-yn-1-yl)pyridin-2-yl)-2-(3,5-difluorophenyl)ethyl)-2-((3b-S,4aR)-3-(difluoromethyl)-5,5-difluoro-3b,4,4a,5-tetrahydro-1H-cyclopropa[3,4]cyclopenta[1,2-c]pyrazol-1-yl)acetamide]", "values": [
      {"measurement": "inhibition at 0.2 µM", "setting": "HIV-IIIb", "value": 100, "unit": "%"},
      {"measurement": "inhibition at 2 µM", "setting": "HIV-IIIb", "value": 100, "unit": "%"},
      {"measurement": "CC50 at 5 days", "setting": "[1]", "value": 8.73, "unit": "µM"}
    ]},
    {"smiles": "Cn1nc(NC(=O)c2ccno2)c2c(Cl)ccc(-c3ccc(C#CC(C)(C)O)nc3[C@H](Cc3cc(F)cc(F)c3)NC(=O)Cn3nc(C(F)F)c4c3C(F)(F)[C@@H]3C[C@H]43)c21", "note": "[Compound 87, N-(4-chloro-7-(2-((S)-1-(2-((3b-S,4aR)-3-(difluoromethyl)-5,5-difluoro-3b,4,4a,5-tetrahydro-1H-cyclopropa[3,4]cyclopenta[1,2-c]pyrazol-1-yl)acetamido)-2-(3,5-difluorophenyl)ethyl)-6-(3-hydroxy-3-methylbut-1-yn-1-yl)pyridin-3-yl)-1-methyl-1H-indazol-3-yl)isoxazole-5-carboxamide]", "values": [
      {"measurement": "inhibition at 0.2 µM", "setting": "HIV-IIIb", "value": 95, "unit": "%"},
      {"measurement": "inhibition at 2 µM", "setting": "HIV-IIIb", "value": 96, "unit": "%"},
      {"measurement": "CC50 at 5 days", "setting": "[1]", "value": 6.8, "unit": "µM"}
    ]},
    {"smiles": "Cn1nc(NCC(F)F)c2cccc(-c3ccc(C#CC(C)(C)O)nc3[C@H](Cc3cc(F)cc(F)c3)NC(=O)Cn3nc(C(F)F)c4c3C(F)(F)[C@@H]3C[C@H]43)c21", "note": "[Compound 74D, N—((S)-1-(3-(3-((2,2-difluoroethyl)amino)-1-methyl-1H-indazol-7-yl)-6-(3-hydroxy-3-methylbut-1-yn-1-yl)pyridin-2-yl)-2-(3,5-difluorophenyl)ethyl)-2-((3b-S,4aR)-3-(difluoromethyl)-5,5-difluoro-3b,4,4a,5-tetrahydro-1H-cyclopropa[3,4]cyclopenta[1,2-c]pyrazol-1-yl)acetamide]", "values": [
      {"measurement": "inhibition at 0.2 µM", "setting": "HIV-IIIb", "value": 99, "unit": "%"},
      {"measurement": "inhibition at 2 µM", "setting": "HIV-IIIb", "value": 99, "unit": "%"},
      {"measurement": "CC50 at 5 days", "setting": "[1]", "value": 6.91, "unit": "µM"}
    ]},
    {"smiles": "Cn1nc(NS(C)(=O)=O)c2c(Cl)ccc(-c3ccc(C#CC(C)(C)O)nc3[C@H](Cc3cc(F)cc(F)c3)NC(=O)Cc3c[nH]c4ccc(F)cc34)c21", "note": "[Compound 193, (S)—N-(1-(3-(4 chloro-1-methyl-3-(methylsulfonamido)-1H-indazol-7-yl)-6-(3-hydroxy-3-methylbut-1-yn-1-yl)pyridin-2-yl)-2-(3,5-difluorophenyl)ethyl)-2-(5-fluoro-1H-indol-3-yl)acetamide]", "values": [
      {"measurement": "inhibition at 0.2 µM", "setting": "HIV-IIIb", "value": 92, "unit": "%"},
      {"measurement": "inhibition at 2 µM", "setting": "HIV-IIIb", "value": 92, "unit": "%"},
      {"measurement": "CC50 at 5 days", "setting": "[1]", "value": 23.1, "unit": "µM"}
    ]},
    {"smiles": "Cn1nc(NS(C)(=O)=O)c2c(Cl)ccc(-c3ccc(C#CC(C)(O)CO)nc3[C@H](Cc3cc(F)cc(F)c3)NC(=O)Cn3nc(C(F)F)c4c3C(F)(F)[C@@H]3C[C@H]43)c21", "note": "(stereo partly drawn) [Compound 166, N-((1S)-1-(3-(4-chloro-1-methyl-3-(methylsulfonamido)-1H-indazol-7-yl)-6-(3,4-dihydroxy-3-methylbut-1-yn-1-yl)pyridin-2-yl)-2-(3,5-difluorophenyl)ethyl)-2-((3b-S,4aR)-3-(difluoromethyl)-5,5-difluoro-3b,4,4a,5-tetrahydro-1H-cyclopropa[3,4]cyclopenta[1,2-c]pyrazol-1-yl)acetamide]", "values": [
      {"measurement": "inhibition at 0.2 µM", "setting": "HIV-IIIb", "value": 92, "unit": "%"},
      {"measurement": "inhibition at 2 µM", "setting": "HIV-IIIb", "value": 92, "unit": "%"},
      {"measurement": "CC50 at 5 days", "setting": "[1]", "value": 24.4, "unit": "µM"}
    ]},
    {"smiles": "CC(C)(O)C#Cc1ccc(-c2cccc3c(NS(C)(=O)=O)noc23)c([C@H](Cc2cc(F)cc(F)c2)NC(=O)Cn2nc(C(F)(F)F)c3c2C(F)(F)[C@@H]2C[C@H]32)n1", "note": "[Compound 39C, 2-((3bS,4aR)-5,5-difluoro-3-(trifluoromethyl)-3b,4,4a,5-tetrahydro-1H-cyclopropa[3,4]cyclopenta[1,2-c]pyrazol-1-yl)-N—((S)-2-(3,5-difluorophenyl)-1-(6-(3-hydroxy-3-methylbut-1-yn-1-yl)-3-(3-(methylsulfonamido)benzo[d]isoxazol-7-yl)pyridin-2-yl)ethyl)acetamide]", "values": [
      {"measurement": "inhibition at 0.2 µM", "setting": "HIV-IIIb", "value": 7, "unit": "%"},
      {"measurement": "inhibition at 2 µM", "setting": "HIV-IIIb", "value": 91, "unit": "%"},
      {"measurement": "CC50 at 5 days", "setting": "[1]", "value": 26.5, "unit": "µM"}
    ]},
    {"smiles": "Cn1nc(NS(C)(=O)=O)c2c(Cl)ccc(-c3ccc(C#CC(C)(C)O)nc3[C@H](Cc3cc(F)cc(F)c3)NC(=O)Cc3ccc4ccccc4c3)c21", "note": "[Compound 200, (S)—N-(1-(3-(4 chloro-1-methyl-3-(methylsulfonamido)-1H-indazol-7-yl)-6-(3-hydroxy-3-methylbut-1-yn-1-yl)pyridin-2-yl)-2-(3,5-difluorophenyl)ethyl)-2-(naphthalen-2-yl)acetamide]", "values": [
      {"measurement": "inhibition at 0.2 µM", "setting": "HIV-IIIb", "value": 89, "unit": "%"},
      {"measurement": "inhibition at 2 µM", "setting": "HIV-IIIb", "value": 90, "unit": "%"},
      {"measurement": "CC50 at 5 days", "setting": "[1]", "value": 12.2, "unit": "µM"}
    ]}
  ]
}
